According to patent US10988524B2, “Modified relaxin B chain peptides and their therapeutic use” (priority 2018, dated 2021):
“And” between values parts separate entries of the source, which are not always exact repeats. Equal entries are not always repeated. Non-standard residues stand in square brackets, D forms with d. Residues, ends and D or L forms follow the SMILES beside them. αMeK = C[C@](N)(CCCCN)C(=O)O; Nle = CCCC[C@H](N)C(=O)O; Aib = CC(C)(N)C(=O)O

Molecular target: T1, RXFP1 (Homo sapiens, UniProt Q9HBX9)
T1 sequence (Q9HBX9 1-757): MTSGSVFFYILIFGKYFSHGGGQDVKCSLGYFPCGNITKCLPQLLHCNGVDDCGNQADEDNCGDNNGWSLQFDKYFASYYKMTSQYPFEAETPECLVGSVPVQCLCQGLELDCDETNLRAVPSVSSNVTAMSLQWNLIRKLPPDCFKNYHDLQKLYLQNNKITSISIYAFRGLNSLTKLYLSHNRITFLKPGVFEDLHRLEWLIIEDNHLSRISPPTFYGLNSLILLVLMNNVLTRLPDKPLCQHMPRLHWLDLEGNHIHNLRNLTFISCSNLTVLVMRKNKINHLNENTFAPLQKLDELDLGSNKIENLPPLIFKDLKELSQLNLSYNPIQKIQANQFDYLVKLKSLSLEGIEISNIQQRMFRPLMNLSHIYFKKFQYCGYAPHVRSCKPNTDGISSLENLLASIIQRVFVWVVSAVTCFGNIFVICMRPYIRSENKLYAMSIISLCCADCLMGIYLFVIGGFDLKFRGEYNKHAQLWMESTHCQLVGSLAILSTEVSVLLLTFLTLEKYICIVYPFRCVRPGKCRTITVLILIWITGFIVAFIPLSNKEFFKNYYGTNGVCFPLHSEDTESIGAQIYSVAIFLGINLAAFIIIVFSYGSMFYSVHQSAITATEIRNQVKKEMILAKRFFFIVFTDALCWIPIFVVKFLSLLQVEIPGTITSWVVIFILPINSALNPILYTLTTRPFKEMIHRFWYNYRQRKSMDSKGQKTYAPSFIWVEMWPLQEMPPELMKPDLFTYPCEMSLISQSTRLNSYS
Assay: OVCAR5 cAMP assay (RXFP1 agonist activity, HTRF)
Settings: for Emax: OVCAR-5, read-out: cAMP assay in OVCAR 5 cells Emax, maximal intracellular cAMP relative to H2-relaxin in the same test occasion; for EC50: cAMP assay in OVCAR 5 cells EC50 (nM), OVCAR5 cells expressing endogenous RXFP1, cAMP by HTRF, 30 min at 37° C., 1 mM IBMX

Compound | Emax [%] | EC50
CCCC[C@H](NC(=O)CNC(=O)[C@H](CCC(=O)O)NC(=O)C(C)(C)NC(=O)C(C)(C)NC(=O)[C@@H](NC(=O)[C@H](C)NC(=O)[C@H](C)NC(=O)[C@H](CCCNC(=N)N)NC(=O)[C@@H](NC(=O)[C@H](CCCCN)NC(=O)[C@H](CCC(=O)O)NC(=O)[C@H](CCCNC(=N)N)NC(=O)CNC(=O)[C@H](CCC(=O)O)NC(=O)[C@H](CC(C)C)NC(C)=O)C(C)C)[C@@H](C)CC)C(=O)N[C@@H](CO)C(=O)N[C@H](C(=O)N[C@@H](Cc1c[nH]c2ccccc12)C(=O)N[C@@H](CO)C(=O)NC(C)(C)C(=O)N[C@@H](CCCNC(=N)N)C(=O)N[C@@H](CCCCN)C(=O)N[C@@H](CCCCN)C(N)=O)[C@@H](C)O [compound 17] (Ac-LEGREKVRAAI[Aib][Aib]EG[Nle]STWS[Aib]RKK-NH2) | 90 | 
CC[C@H](C)[C@H](NC(=O)[C@H](CCC(N)=O)NC(=O)[C@H](C)NC(=O)[C@H](CCCNC(=N)N)NC(=O)[C@@H](NC(=O)[C@H](CCCCN)NC(=O)[C@H](CCC(=O)O)NC(=O)[C@H](CCCNC(=N)N)NC(=O)CNC(=O)[C@H](CCC(=O)O)NC(=O)[C@H](CC(C)C)NC(C)=O)C(C)C)C(=O)NC(C)(C)C(=O)NC(C)(C)C(=O)N[C@@H](CCC(=O)O)C(=O)NCC(=O)N[C@@H](CCSC)C(=O)N[C@@H](CO)C(=O)N[C@@H](CCCCN)C(=O)N[C@@H](Cc1c[nH]c2ccccc12)C(=O)N[C@@H](CO)C(=O)NC(C)(C)C(=O)N[C@@H](CCCNC(=N)N)C(=O)N[C@@H](CCCCN)C(N)=O [compound 18] (Ac-LEGREKVRAQI[Aib][Aib]EGMSKWS[Aib]RK-NH2) | 104 | 
CCCC[C@H](NC(=O)CNC(=O)[C@H](CCC(=O)O)NC(=O)C(C)(C)NC(=O)C(C)(C)NC(=O)[C@@H](NC(=O)C(C)(C)NC(=O)[C@H](C)NC(=O)[C@H](CCCNC(=N)N)NC(=O)[C@@H](NC(=O)[C@H](CCCCN)NC(=O)[C@H](CCC(=O)O)NC(=O)[C@H](CCCNC(=N)N)NC(=O)CNC(=O)[C@H](CCC(=O)O)NC(=O)[C@H](CC(C)C)NC(C)=O)C(C)C)[C@@H](C)CC)C(=O)N[C@@H](CO)C(=O)N[C@H](C(=O)N[C@@H](Cc1c[nH]c2ccccc12)C(=O)N[C@@H](CO)C(=O)N[C@@H](CCCCN)C(=O)N[C@@H](CCCNC(=N)N)C(=O)N[C@@H](CCCCN)C(=O)N[C@@H](CCCCN)C(N)=O)[C@@H](C)O [compound 19] (Ac-LEGREKVRA[Aib]I[Aib][Aib]EG[Nle]STWSKRKK-NH2) | 97 | 
CCCC[C@H](NC(=O)CNC(=O)[C@H](CCC(=O)O)NC(=O)C(C)(C)NC(=O)C(C)(C)NC(=O)[C@@H](NC(=O)C(C)(C)NC(=O)[C@H](C)NC(=O)[C@H](CCCNC(=N)N)NC(=O)[C@@H](NC(=O)[C@H](CCCCN)NC(=O)[C@H](CCC(=O)O)NC(=O)[C@H](CCCNC(=N)N)NC(=O)CNC(=O)[C@H](CCC(=O)O)NC(=O)[C@H](CC(C)C)NC(C)=O)C(C)C)[C@@H](C)CC)C(=O)N[C@@H](CO)C(=O)N[C@H](C(=O)N[C@@H](Cc1c[nH]c2ccccc12)C(=O)N[C@@H](CO)C(=O)N[C@@](C)(CCCCN)C(=O)N[C@@H](CCCNC(=N)N)C(=O)N[C@@H](CCCCN)C(=O)N[C@@H](CCCCN)C(N)=O)[C@@H](C)O [compound 20] (Ac-LEGREKVRA[Aib]I[Aib][Aib]EG[Nle]STWS[αMeK]RKK-NH2) | 97 | ≤ 10 nM and ≤ 5 nM and 1.8 nM
CCCC[C@H](NC(=O)CNC(=O)[C@H](CCC(=O)O)NC(=O)C(C)(C)NC(=O)C(C)(C)NC(=O)[C@@H](NC(=O)[C@H](CCC(N)=O)NC(=O)[C@H](C)NC(=O)[C@H](CCCNC(=N)N)NC(=O)[C@@H](NC(=O)[C@H](CCCCN)NC(=O)[C@H](CCC(=O)O)NC(=O)[C@H](CCCNC(=N)N)NC(=O)CNC(=O)[C@H](CCC(=O)O)NC(=O)[C@H](CC(C)C)NC(C)=O)C(C)C)[C@@H](C)CC)C(=O)N[C@@H](CO)C(=O)N[C@H](C(=O)N[C@@H](Cc1c[nH]c2ccccc12)C(=O)N[C@@H](CO)C(=O)NC(C)(C)C(=O)N[C@@H](CCCNC(=N)N)C(=O)N[C@@H](CCCCN)C(=O)N[C@@H](CCCCNC(C)=O)C(N)=O)[C@@H](C)O [compound 21] (Ac-LEGREKVRAQI[Aib][Aib]EG[Nle]STWS[Aib]RKK(Ac)-NH2) | 96 | 32.8 nM
CCCC[C@H](NC(=O)CNC(=O)[C@H](CCC(=O)O)NC(=O)C(C)(C)NC(=O)C(C)(C)NC(=O)[C@@H](NC(=O)[C@H](CCC(N)=O)NC(=O)[C@H](C)NC(=O)[C@H](CCCNC(=N)N)NC(=O)[C@@H](NC(=O)[C@H](CCCCN)NC(=O)[C@H](CCC(=O)O)NC(=O)[C@H](CCCNC(=N)N)NC(=O)CNC(=O)[C@H](CCC(=O)O)NC(=O)[C@H](CC(C)C)NC(C)=O)C(C)C)[C@@H](C)CC)C(=O)N[C@@H](CO)C(=O)N[C@H](C(=O)N[C@@H](Cc1c[nH]c2ccccc12)C(=O)N[C@@H](C)C(=O)NC(C)(C)C(=O)N[C@@H](CCCNC(=N)N)C(=O)N[C@@H](CCCCN)C(=O)N[C@@H](CCCCN)C(N)=O)[C@@H](C)O [compound 22] (Ac-LEGREKVRAQI[Aib][Aib]EG[Nle]STWA[Aib]RKK-NH2) | 102 | 

Other lines, results leading:

Emax [%] | EC50 | Compound
95 |  | CCCC[C@H](NC(=O)CNC(=O)[C@H](CCC(=O)O)NC(=O)C(C)(C)NC(=O)C(C)(C)NC(=O)[C@@H](NC(=O)[C@H](CCC(N)=O)NC(=O)[C@H](C)NC(=O)[C@H](CCCNC(=N)N)NC(=O)[C@@H](NC(=O)[C@H](CCCCN)NC(=O)[C@H](CCC(=O)O)NC(=O)[C@H](CCCNC(=N)N)NC(=O)CNC(=O)[C@H](CCC(=O)O)NC(=O)[C@H](CC(C)C)NC(C)=O)C(C)C)[C@@H](C)CC)C(=O)N[C@@H](CO)C(=O)N[C@H](C(=O)N[C@@H](Cc1c[nH]c2ccccc12)C(=O)N[C@H](C(=O)NC(C)(C)C(=O)N[C@@H](CCCNC(=N)N)C(=O)N[C@@H](CCCCN)C(=O)N[C@@H](CCCCN)C(N)=O)[C@@H](C)O)[C@@H](C)O [compound 23] (Ac-LEGREKVRAQI[Aib][Aib]EG[Nle]STWT[Aib]RKK-NH2)
92 |  | CCCC[C@H](NC(=O)CNC(=O)[C@H](CCC(=O)O)NC(=O)C(C)(C)NC(=O)C(C)(C)NC(=O)[C@@H](NC(=O)[C@H](CCCCNC(C)=O)NC(=O)[C@H](C)NC(=O)[C@H](CCCNC(=N)N)NC(=O)[C@@H](NC(=O)[C@H](CCCCN)NC(=O)[C@H](CCC(=O)O)NC(=O)[C@H](CCCNC(=N)N)NC(=O)CNC(=O)[C@H](CCC(=O)O)NC(=O)[C@H](CC(C)C)NC(C)=O)C(C)C)[C@@H](C)CC)C(=O)N[C@@H](CO)C(=O)N[C@H](C(=O)N[C@@H](Cc1c[nH]c2ccccc12)C(=O)N[C@@H](CO)C(=O)NC(C)(C)C(=O)N[C@@H](CCCNC(=N)N)C(=O)N[C@@H](CCCCN)C(=O)N[C@@H](CCCCN)C(N)=O)[C@@H](C)O [compound 24] (Ac-LEGREKVRAK(Ac)I[Aib][Aib]EG[Nle]STWS[Aib]RKK-NH2)
100 | ≤ 5 nM | CCCC[C@H](NC(=O)CNC(=O)[C@H](CCC(=O)O)NC(=O)C(C)(C)NC(=O)C(C)(C)NC(=O)[C@@H](NC(=O)[C@H](CCCCNC(C)=O)NC(=O)[C@H](C)NC(=O)[C@H](CCCNC(=N)N)NC(=O)[C@@H](NC(=O)[C@H](CCCCN)NC(=O)[C@H](CCC(=O)O)NC(=O)[C@H](CCCNC(=N)N)NC(=O)CNC(=O)[C@H](CCC(=O)O)NC(=O)[C@H](CC(C)C)NC(C)=O)C(C)C)[C@@H](C)CC)C(=O)N[C@@H](CO)C(=O)N[C@H](C(=O)N[C@@H](Cc1c[nH]c2ccccc12)C(=O)N[C@@H](CO)C(=O)N[C@@H](CCCCNC(C)=O)C(=O)N[C@@H](CCCNC(=N)N)C(=O)N[C@@H](CCCCN)C(=O)N[C@@H](CCCCN)C(N)=O)[C@@H](C)O [compound 25] (Ac-LEGREKVRAK(Ac)I[Aib][Aib]EG[Nle]STWSK(Ac)RKK-NH2)
95 | 9.5 nM | CCCC[C@H](NC(=O)CNC(=O)[C@H](CCC(=O)O)NC(=O)C(C)(C)NC(=O)C(C)(C)NC(=O)[C@@H](NC(=O)[C@H](CCCCNC(C)=O)NC(=O)[C@H](C)NC(=O)[C@H](CCCNC(=N)N)NC(=O)[C@@H](NC(=O)[C@H](CCCCN)NC(=O)[C@H](CCC(=O)O)NC(=O)[C@H](CCCNC(=N)N)NC(=O)CNC(=O)[C@H](CCC(=O)O)NC(=O)[C@H](CC(C)C)NC(C)=O)C(C)C)[C@@H](C)CC)C(=O)N[C@@H](CO)C(=O)N[C@H](C(=O)N[C@@H](Cc1c[nH]c2ccccc12)C(=O)N[C@@H](CO)C(=O)NC(C)(C)C(=O)N[C@@H](CCCNC(=N)N)C(=O)N[C@@H](CCCCNC(C)=O)C(=O)N[C@@H](CCCCN)C(N)=O)[C@@H](C)O [compound 27] (Ac-LEGREKVRAK(Ac)I[Aib][Aib]EG[Nle]STWS[Aib]RK(Ac)K-NH2)
